Source: patent US12077503B2, “Substituted cyclic amides and their use as herbicides” (FMC CORPORATION, priority 2015, dated 2024)
Where two headings read alike, the source gives them in different places.

Key:
Format in all cases: in vivo
[1] = system: Galium (catchweed bedstraw, Galium aparine); test: Test A postemergence; details: Galium, post-emergence, 240 h; for pest or weed control at 125 g/ha: 125 g ai/ha; for pest or weed control at 500 g/ha: 500 g ai/ha, visual injury, approx. 10 d
Method in brief: (§1)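 Compounds were formulated in a non-phytotoxic solvent mixture with surfactant and applied as a preemergence directed soil spray after seeding, or sprayed postemergence over plants 2 to 10 cm tall at the one- to two-leaf stage. Evaluation after about 10 d compared treated with untreated controls, using a scale from 0 (no effect) to 100 (complete control).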

Kochia (Kochia scoparia) = test: Test A postemergence; details: Bassia scoparia, post-emergence, 240 h; for pest or weed control at 125 g/ha: 125 g ai/ha; for pest or weed control at 500 g/ha: 500 g ai/ha, visual injury, approx. 10 d
Method in brief: as §1

[2] = system: pigweed (Amaranthus retroflexus); test: Test A postemergence; details: Amaranthus retroflexus, post-emergence, 240 h; for pest or weed control at 125 g/ha: 125 g ai/ha; for pest or weed control at 500 g/ha: 500 g ai/ha, visual injury, approx. 10 d
Method in brief: as §1

[3] = system: barnyardgrass (Echinochloa crus-galli); test: Test A postemergence; details: Echinochloa crus-galli, post-emergence, 240 h; for pest or weed control at 125 g/ha: 125 g ai/ha; for pest or weed control at 500 g/ha: 500 g ai/ha, visual injury, approx. 10 d
Method in brief: as §1

[4] = system: giant foxtail (Setaria faberii); test: Test A postemergence; details: Setaria faberi, post-emergence, 240 h; for pest or weed control at 125 g/ha: 125 g ai/ha; for pest or weed control at 500 g/ha: 500 g ai/ha, visual injury, approx. 10 d
Method in brief: as §1

corn (Zea mays) = test: Test A postemergence; details: Zea mays, post-emergence, 240 h; for plant injury at 125 g/ha / Corn plant response rating (crop injury, 0 = no effect, 100 = complete kill) at 500 g/ha: Postemergence; for plant injury at 125 g/ha: visual rating about 10 d after treatment, read-out: Corn plant response rating (0 to 100 scale); for Corn plant response rating (crop injury, 0 = no effect, 100 = complete kill) at 500 g/ha: 500 g ai/ha, visual injury, approx. 10 d
Method in brief: as §1

[5] = system: blackgrass (Alopecurus myosuroides); test: Test A postemergence; details: Alopecurus myosuroides, post-emergence, 240 h; for pest or weed control at 125 g/ha: 125 g ai/ha; for pest or weed control at 500 g/ha: 500 g ai/ha, visual injury, approx. 10 d
Method in brief: as §1

[6] = system: ragweed (common ragweed, Ambrosia elatior); test: Test A postemergence; details: Ambrosia artemisiifolia, post-emergence, 240 h; for pest or weed control at 125 g/ha: 125 g ai/ha; for pest or weed control at 500 g/ha: 500 g ai/ha, visual injury, approx. 10 d
Method in brief: as §1

[7] = system: wheat (Triticum aestivum); test: Test A postemergence; details: Triticum aestivum, post-emergence, 240 h; for plant injury at 125 g/ha: 125 g ai/ha; for plant injury at 500 g/ha: 500 g ai/ha, visual injury, approx. 10 d
Method in brief: as §1

[8] = system: ryegrass, Italian (Italian ryegrass, Lolium multiflorum); test: Test A postemergence; details: Lolium multiflorum, post-emergence, 240 h; for pest or weed control at 125 g/ha: 125 g ai/ha; for pest or weed control at 500 g/ha: 500 g ai/ha, visual injury, approx. 10 d
Method in brief: as §1

[9] = system: barnyardgrass (Echinochloa crus-galli); test: Test B flooded paddy test; details: Echinochloa crus-galli, Flood, 250 g ai/ha
Method in brief: (§2)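 Evaluation by eye, against controls, occurred 13–15 d post-treatment in a greenhouse, using a 0 (no effect) to 100 (complete control) scale. Application was into the paddy water, 3 cm deep over the soil, on 2-leaf plants.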

rice (Oryra sativa) = test: Test B flooded paddy test; details: Oryza sativa, Flood, 250 g ai/ha
Method in brief: as §2

[10] = system: sedge, umbrella (small-flower umbrella sedge, Cyperus difformis); test: Test B flooded paddy test; details: Cyperus difformis, Flood, 250 g ai/ha
Method in brief: as §2

[11] = system: ducksalad (Heteranthera limosa); test: Test B flooded paddy test; details: Heteranthera limosa, Flood, 250 g ai/ha
Method in brief: as §2

[12] = Postemergence, visual rating about 10 d after treatment, read-out: Galium plant response rating (0 to 100 scale)
[13] = Postemergence, 0 to 100 scale (0 no effect, 100 complete control), read-out: Plant response rating, Galium
[14] = Postemergence, visual rating about 10 d after treatment, read-out: Kochia plant response rating (0 to 100 scale)
[15] = Postemergence, 0 to 100 scale (0 no effect, 100 complete control), read-out: Plant response rating, Kochia
[16] = Postemergence, visual rating about 10 d after treatment, read-out: Pigweed plant response rating (0 to 100 scale)
[17] = Postemergence, 0 to 100 scale (0 no effect, 100 complete control), read-out: Plant response rating, Pigweed
[18] = Postemergence, visual rating about 10 d after treatment, read-out: Barnyardgrass plant response rating (0 to 100 scale, 0 no effect, 100 complete control)
[19] = Postemergence, 0 to 100 scale (0 no effect, 100 complete control), read-out: Plant response rating, Barnyardgrass
[20] = Postemergence, visual rating about 10 d after treatment, read-out: Foxtail, Giant plant response rating (0 to 100 scale)
[21] = Postemergence, 0 to 100 scale (0 no effect, 100 complete control), read-out: Plant response rating, Foxtail, Giant
[22] = 0 to 100 scale (0 no effect, 100 complete control)
[23] = Postemergence, visual rating about 10 d after treatment, read-out: Blackgrass plant response rating (0 to 100 scale)
[24] = Postemergence, 0 to 100 scale (0 no effect, 100 complete control), read-out: Plant response rating, Blackgrass
[25] = Postemergence, visual rating about 10 d after treatment, read-out: Ragweed plant response rating (0 to 100 scale)
[26] = Postemergence, 0 to 100 scale (0 no effect, 100 complete control), read-out: Plant response rating, Ragweed
[27] = Postemergence, visual rating about 10 d after treatment, read-out: Wheat plant response rating (0 to 100 scale)
[28] = Postemergence, 0 to 100 scale (0 no effect, 100 complete control), read-out: Plant response rating, Wheat
[29] = Postemergence, visual rating about 10 d after treatment, read-out: Ryegrass, Italian plant response rating (0 to 100 scale)
[30] = Postemergence, 0 to 100 scale (0 no effect, 100 complete control), read-out: Plant response rating, Ryegrass, Italian
[31] = 360 h, visually evaluated after 13 to 15 d, read-out: Plant response rating, Barnyardgrass (0 to 100 scale where 0 is no effect and 100 is complete control)
[32] = 360 h, visually evaluated after 13 to 15 d, read-out: Plant response rating, Rice (0 to 100 scale where 0 is no effect and 100 is complete control)
[33] = 360 h, visually evaluated after 13 to 15 d, read-out: Plant response rating, Sedge, Umbrella (0 to 100 scale where 0 is no effect and 100 is complete control)
[34] = 360 h, visually evaluated after 13 to 15 d, read-out: Plant response rating, Ducksalad (0 to 100 scale where 0 is no effect and 100 is complete control)

Structure (SMILES)	pest or weed control at 125 g/ha [1, 12]	pest or weed control at 500 g/ha [1, 13]	pest or weed control at 125 g/ha (Kochia (Kochia scoparia); [14])	pest or weed control at 500 g/ha (Kochia (Kochia scoparia); [15])	pest or weed control at 125 g/ha [2, 16]	pest or weed control at 500 g/ha [2, 17]	pest or weed control at 125 g/ha [3, 18]	pest or weed control at 500 g/ha [3, 19]	pest or weed control at 125 g/ha [4, 20]	pest or weed control at 500 g/ha [4, 21]	plant injury at 125 g/ha (corn (Zea mays); 125 g ai/ha)	Corn plant response rating (crop injury, 0 = no effect, 100 = complete kill) at 500 g/ha (corn (Zea mays); [22])	pest or weed control at 125 g/ha [5, 23]	pest or weed control at 500 g/ha [5, 24]	pest or weed control at 125 g/ha [6, 25]	pest or weed control at 500 g/ha [6, 26]	plant injury at 125 g/ha [7, 27]	plant injury at 500 g/ha [7, 28]	pest or weed control at 125 g/ha [8, 29]	pest or weed control at 500 g/ha [8, 30]	further results
CN1C[C@H](c2cc(C(F)(F)F)cs2)[C@@H](C(=O)Nc2cccc(F)c2F)C1=O [Compound 1377]	40%	60%	50%	70%	20%	40%	90%	90%	80%	80%	50%	80%	20%	60%	20%	60%	30%	60%	30%	60%	pest or weed control at 250 g/ha [9, 31]: 60%; pest or weed control at 250 g/ha (rice (Oryra sativa); [32]): 15%; pest or weed control at 250 g/ha [10, 33]: 0%; pest or weed control at 250 g/ha [11, 34]: 90%
C=CCOc1cccc(C2CN(C)C(=O)C2C(=O)Nc2ccccc2F)c1 (centres unmarked) [Compound 1329]	30%	60%	40%	50%	0%	0%	90%	90%	90%	90%	30%	50%	20%	60%	0%	0%	0%	20%	0%	50%	pest or weed control at 250 g/ha [9, 31]: 60%; pest or weed control at 250 g/ha (rice (Oryra sativa); [32]): 0%; pest or weed control at 250 g/ha [10, 33]: 0%; pest or weed control at 250 g/ha [11, 34]: 70%
CN1C[C@H](c2cccc(S(C)(=O)=O)c2)[C@@H](C(=O)Nc2cccc(F)c2F)C1=O (racemic) [Compound 777]	–	–	–	–	–	–	–	–	–	–	–	–	–	–	–	–	–	–	–	–	pest or weed control at 125 g/ha ([1]; postemergence, visual injury after approximately 10 d, 0 to 100 scale (0 no effect, 100 complete control), read-out: Plant response rating, Galium): 0%; pest or weed control at 125 g/ha (Kochia (Kochia scoparia); postemergence, visual injury after approximately 10 d, 0 to 100 scale (0 no effect, 100 complete control), read-out: Plant response rating, Kochia): 0%; pest or weed control at 125 g/ha ([2]; postemergence, visual injury after approximately 10 d, 0 to 100 scale (0 no effect, 100 complete control), read-out: Plant response rating, Pigweed): 0%; pest or weed control at 125 g/ha ([3]; postemergence, visual injury after approximately 10 d, 0 to 100 scale (0 no effect, 100 complete control), read-out: Plant response rating, Barnyardgrass): 70%; pest or weed control at 125 g/ha ([4]; postemergence, visual injury after approximately 10 d, 0 to 100 scale (0 no effect, 100 complete control), read-out: Plant response rating, Foxtail, Giant): 30%; Corn plant response rating (crop injury, 0 = no effect, 100 = complete kill) at 125 g/ha (corn (Zea mays); 125 g ai/ha, postemergence, visual injury after approximately 10 d, 0 to 100 scale (0 no effect, 100 complete control)): 40%; pest or weed control at 125 g/ha ([5]; postemergence, visual injury after approximately 10 d, 0 to 100 scale (0 no effect, 100 complete control), read-out: Plant response rating, Blackgrass): 0%; pest or weed control at 125 g/ha ([6]; postemergence, visual injury after approximately 10 d, 0 to 100 scale (0 no effect, 100 complete control), read-out: Plant response rating, Ragweed): 0%; plant injury at 125 g/ha ([7]; postemergence, visual injury after approximately 10 d, 0 to 100 scale (0 no effect, 100 complete control), read-out: Plant response rating, Wheat): 30%; pest or weed control at 125 g/ha ([8]; postemergence, visual injury after approximately 10 d, 0 to 100 scale (0 no effect, 100 complete control), read-out: Plant response rating, Ryegrass, Italian): 0%; pest or weed control at 250 g/ha ([9]; scale of 0 to 100 where 0 is no effect and 100 is complete control, read-out: Barnyardgrass plant response rating): 30%; pest or weed control at 250 g/ha (rice (Oryra sativa); scale of 0 to 100 where 0 is no effect and 100 is complete control, read-out: Rice plant response rating): 20%; pest or weed control at 250 g/ha ([10]; scale of 0 to 100 where 0 is no effect and 100 is complete control, read-out: Sedge, Umbrella plant response rating): 0%; pest or weed control at 250 g/ha ([11]; scale of 0 to 100 where 0 is no effect and 100 is complete control, read-out: Ducksalad plant response rating): 0%
